ChEMBL document CHEMBL1201862, “PubChem BioAssay data set” (2004)
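Results reflect a 48-hour exposure of cells in 96-well plates to compound at five concentrations. GI50 marks 50% less growth.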 Active and inactive are the calls of the source. No stated cut-off is given here; in the data, active = GI50 up to about 1.1 µM and inactive = higher.

Experiments:
Assay in all cases: DTP human tumour cell line panel, 48 h
OVCAR-3 = system: OVCAR-3
SNB-75 = system: SNB-75
MCF7 = system: MCF7
BT-549 = system: BT-549
SNB-19 = system: SNB-19
DU-145 = system: DU-145
NCI-H226 = system: NCI-H226
HOP-92 = system: HOP-92
T47D = system: T47D
NCI-H522 = system: NCI-H522
EKVX = system: EKVX
PC-3 = system: PC-3
SW-620 = system: SW-620
MDA-MB-435 = system: MDA-MB-435
786-0 = system: 786-0
HCT-15 = system: HCT-15
NCI-H23 = system: NCI-H23
RXF 393 = system: RXF 393
A498 = system: A498

| SMILES | GI50 (OVCAR-3) | GI50 (SNB-75) | GI50 (MCF7) | GI50 (BT-549) | GI50 (SNB-19) | GI50 (DU-145) | GI50 (NCI-H226) | GI50 (HOP-92) | GI50 (T47D) | GI50 (NCI-H522) | GI50 (EKVX) | GI50 (PC-3) | GI50 (SW-620) | GI50 (MDA-MB-435) | GI50 (786-0) | GI50 (HCT-15) [µM] | GI50 (NCI-H23) | GI50 (RXF 393) | GI50 (A498) |
| --- | --- | --- | --- | --- | --- | --- | --- | --- | --- | --- | --- | --- | --- | --- | --- | --- | --- | --- | --- |
| CN(C)CCN(/C(=N/c1ccccc1)N1CCCC1)c1ccccc1 | 37.3 µM (inactive) | 49 µM (inactive) | 42.5 µM (inactive) | > 100 µM (inactive) | > 100 µM (inactive) | > 100 µM (inactive) | 75.9 µM (inactive) | 96.8 µM (inactive) | > 100 µM (inactive) | 16.5 µM (inactive) | > 100 µM (inactive) | 19.8 µM (inactive) | 31.7 µM (inactive) | 15.5 µM (inactive) | > 10 µM (inactive) | 26.8 | 31 µM (inactive) |  |  |
| COc1cc2c(cc1OC)-c1cc3ccc(OC)c(OC)c3c[n+]1CC2 [PALMATINE CHLORIDE] | 39.9 µM (inactive) | > 100 µM (inactive) | > 100 µM (inactive) | > 100 µM (inactive) | 15.5 µM (inactive) | > 100 µM (inactive) | > 100 µM (inactive) | > 100 µM (inactive) | 83.4 µM (inactive) | > 100 µM (inactive) | > 100 µM (inactive) | > 100 µM (inactive) | > 100 µM (inactive) | > 100 µM (inactive) | > 100 µM (inactive) | > 100 |  | > 100 µM (inactive) |  |
| CC(=O)OC[C@@H](OC(C)=O)[C@@H](OC(C)=O)[C@H]1OC[C@@H]2C[C@H]([C@H]1OC(C)=O)N(Cc1ccccc1)O2 | > 100 µM (inactive) | > 100 µM (inactive) | > 100 µM (inactive) | > 100 µM (inactive) | > 100 µM (inactive) | > 100 µM (inactive) | > 100 µM (inactive) | > 100 µM (inactive) | > 100 µM (inactive) |  | > 100 µM (inactive) | > 100 µM (inactive) | > 100 µM (inactive) | > 100 µM (inactive) | > 100 µM (inactive) |  | > 100 µM (inactive) | > 100 µM (inactive) |  |
| CCNc1nc2c(ncn2C2CC(O)C(COP(=O)(O)O)O2)c(=O)[nH]1 (stereo unspecified) | > 100 µM (inactive) | > 100 µM (inactive) | > 100 µM (inactive) | > 100 µM (inactive) | > 100 µM (inactive) | > 100 µM (inactive) | > 100 µM (inactive) | > 100 µM (inactive) | > 100 µM (inactive) | > 100 µM (inactive) | > 100 µM (inactive) | > 100 µM (inactive) | > 100 µM (inactive) | > 100 µM (inactive) | > 100 µM (inactive) | > 100 | > 100 µM (inactive) |  | > 100 µM (inactive) |
| CN1N(c2ccccc2)C(=O)C2=NC=C(C(=O)c3ccccc3)C(=N)C21C (stereo unspecified) | > 100 µM (inactive) |  | > 100 µM (inactive) | > 100 µM (inactive) | > 100 µM (inactive) | > 100 µM (inactive) | > 100 µM (inactive) | > 100 µM (inactive) | > 100 µM (inactive) | > 100 µM (inactive) | > 100 µM (inactive) | > 100 µM (inactive) | > 100 µM (inactive) | > 100 µM (inactive) | > 100 µM (inactive) | > 100 | > 100 µM (inactive) | > 100 µM (inactive) | > 100 µM (inactive) |
| c1ccc2c(c1)CCN2CCc1c[nH]c2ccccc12 | > 10 µM (inactive) | > 10 µM (inactive) | > 10 µM (inactive) | > 10 µM (inactive) | > 10 µM (inactive) | > 10 µM (inactive) | > 10 µM (inactive) | > 10 µM (inactive) | > 10 µM (inactive) | > 10 µM (inactive) | > 10 µM (inactive) | > 10 µM (inactive) | > 10 µM (inactive) | > 10 µM (inactive) | > 10 µM (inactive) | > 10 | > 10 µM (inactive) | > 10 µM (inactive) |  |
| O=c1[nH]c2ccc(C(F)(F)F)cc2nc1-c1ccccc1 | > 100 µM (inactive) | > 100 µM (inactive) | > 100 µM (inactive) | > 100 µM (inactive) | > 100 µM (inactive) | > 100 µM (inactive) |  | > 100 µM (inactive) | > 100 µM (inactive) | > 100 µM (inactive) | > 100 µM (inactive) | > 100 µM (inactive) | > 100 µM (inactive) | > 100 µM (inactive) | > 100 µM (inactive) | > 100 | > 100 µM (inactive) | > 100 µM (inactive) | > 100 µM (inactive) |
| S=C(S)NCCCn1ccnc1 | > 100 µM (inactive) |  | > 100 µM (inactive) | > 100 µM (inactive) | > 100 µM (inactive) | > 100 µM (inactive) | > 100 µM (inactive) | > 100 µM (inactive) | > 100 µM (inactive) | > 100 µM (inactive) | > 100 µM (inactive) | > 100 µM (inactive) | > 100 µM (inactive) | > 100 µM (inactive) | > 100 µM (inactive) | > 100 | > 100 µM (inactive) |  | > 100 µM (inactive) |
| N#Cc1nc(COCc2ccccc2)oc1N | > 100 µM (inactive) | > 100 µM (inactive) | > 100 µM (inactive) | 29.6 µM (inactive) | > 100 µM (inactive) | > 100 µM (inactive) | > 100 µM (inactive) | > 100 µM (inactive) | > 100 µM (inactive) | 2.97 µM (inactive) | > 100 µM (inactive) | > 100 µM (inactive) | > 100 µM (inactive) | > 100 µM (inactive) | > 100 µM (inactive) | 51.1 | > 100 µM (inactive) | > 100 µM (inactive) |  |
| COc1cc(-c2c[nH]c3ccccc23)nc(-c2c[nH]c3ccccc23)n1 | 6.71 µM (inactive) | 6.1 µM (inactive) | 3.56 µM (inactive) | 15.9 µM (inactive) | 5.26 µM (inactive) | 11.3 µM (inactive) |  | 2.34 µM (inactive) | 5.19 µM (inactive) |  | 5.56 µM (inactive) | 2.84 µM (inactive) | 7.62 µM (inactive) | 5.77 µM (inactive) | 1.86 µM (inactive) | 5.61 |  |  | 2.3 µM (inactive) |
| COc1ccc(/C=C2\Oc3cc(OC(C)=O)ccc3C2=O)cc1 | > 100 µM (inactive) | > 100 µM (inactive) | > 100 µM (inactive) | > 100 µM (inactive) | > 100 µM (inactive) | > 100 µM (inactive) | > 100 µM (inactive) |  | > 100 µM (inactive) | 19 µM (inactive) | > 100 µM (inactive) | > 100 µM (inactive) | > 100 µM (inactive) | > 100 µM (inactive) | > 100 µM (inactive) | 94.4 | > 100 µM (inactive) | > 100 µM (inactive) |  |
| COc1ccc(N2C(=O)/C(=C/c3ccc(N(CCC#N)CCC#N)cc3)N=C2c2ccccc2)cc1 | > 100 µM (inactive) | > 100 µM (inactive) | > 100 µM (inactive) | > 100 µM (inactive) | > 100 µM (inactive) | > 100 µM (inactive) | > 100 µM (inactive) | > 100 µM (inactive) | > 100 µM (inactive) |  | > 100 µM (inactive) | > 100 µM (inactive) | > 100 µM (inactive) | > 100 µM (inactive) | > 100 µM (inactive) | > 100 |  | > 100 µM (inactive) | > 100 µM (inactive) |
| COc1cc(NC(C)=O)ccc1C(=O)NN1C(=O)/C(=C/c2ccco2)N=C1c1ccccc1 | > 50 µM (inactive) | > 50 µM (inactive) | 34.3 µM (inactive) | > 50 µM (inactive) | > 50 µM (inactive) | > 50 µM (inactive) |  | > 50 µM (inactive) | > 50 µM (inactive) | 24.5 µM (inactive) | > 50 µM (inactive) | > 50 µM (inactive) | 27.7 µM (inactive) | 25 µM (inactive) | 24.3 µM (inactive) | > 50 | > 50 µM (inactive) | > 50 µM (inactive) | 15.4 µM (inactive) |
| CCCCN1C(=O)CC2[C@@H]3CCc4cc(OC)ccc4C3CC[C@]2(C)C1=O (stereo partly specified) | > 10 µM (inactive) | 3.1 µM (inactive) | > 10 µM (inactive) | > 10 µM (inactive) | > 10 µM (inactive) | > 10 µM (inactive) | > 10 µM (inactive) |  | > 10 µM (inactive) |  | > 10 µM (inactive) | > 10 µM (inactive) | > 10 µM (inactive) | > 10 µM (inactive) | > 10 µM (inactive) | > 10 | > 10 µM (inactive) | > 10 µM (inactive) | > 10 µM (inactive) |
| COCN1C(=O)[C@@H]2CCCN2C(=O)c2cc(Cl)ccc21 |  | > 100 µM (inactive) | > 100 µM (inactive) | > 100 µM (inactive) | > 100 µM (inactive) | > 100 µM (inactive) |  | > 100 µM (inactive) | > 100 µM (inactive) | > 100 µM (inactive) | > 100 µM (inactive) | > 100 µM (inactive) | > 100 µM (inactive) | > 100 µM (inactive) | > 100 µM (inactive) | > 100 | > 100 µM (inactive) | > 100 µM (inactive) | > 100 µM (inactive) |
| COc1cc(O)ccc1C(=S)SC | 62.4 µM (inactive) | > 100 µM (inactive) | > 100 µM (inactive) | > 100 µM (inactive) | 78.2 µM (inactive) | > 100 µM (inactive) | 16 µM (inactive) | 34.2 µM (inactive) | 70.3 µM (inactive) | 46 µM (inactive) | 11.4 µM (inactive) | 47.2 µM (inactive) | > 100 µM (inactive) | 68.5 µM (inactive) | > 100 µM (inactive) | 40.8 | 40.6 µM (inactive) | 89.3 µM (inactive) |  |
